Values of other authors as cited in patent US11737981B2, “Cellulosic polymer nanoparticles and methods of forming them” (The Trustees of Princeton University, priority 2017, dated 2023).
≈ marks a conversion by molar mass, not a printed value.

| solubility in water | Compound |
| --- | --- |
| ~9.6 µg/mL (≈ 13.6 µM) | CCC(C)n1ncn(-c2ccc(N3CCN(c4ccc(OCC5COC(Cn6cncn6)(c6ccc(Cl)cc6Cl)O5)cc4)CC3)cc2)c1=O (stereo not drawn) [Itraconazole] |
| about 0.031 mg/L | CCCCN(CCCC)CC(O)c1cc(Cl)cc2c1-c1ccc(Cl)cc1/C2=C/c1ccc(Cl)cc1 (stereo not drawn) [Lumefantrine] |
| about 0.47 mg/L | artefenomel mesylate [OZ439 mesylate] |
